Data on 1 molecule can be found in patent US20250084056A1, “SUBSTITUTED OXOISOINDOLINYL PIPERIDINE-2,6-DIONE COMPOUNDS” (BRISTOL-MYERS SQUIBB COMPANY, priority 2023, published 2025).

The target in one experiment is Cyclin E1 (Homo sapiens, UniProt P24864+Q96SW2). The experiment can be described thus: Cellular degradation of Cyclin E1 (Western blot) in HCC1569 cells. In kind it is cell-based. Further details: endogenous in cells; host or cells: HCC1569 (ATCC CRL-2330). Conditions: HCC1569 cancer cells, 24 h, FIG. 1A. The method, then:
(§1) The assay measured the ability of the compound to degrade Cyclin E1, inhibit RB phosphorylation, and to determine the selectivity against degradation of GSPT1 in cancer cells in vitro. HCC1569 cells (ATCC #CRL-2330) were cultured in RPMI media (Gibco, catalog A104910) supplemented with 10% FBS (Gibco, catalog 10091148). Cells were plated in tissue culture-treated 6 well plates at a density of 0.5 million cells per well in 2 mL media. The cells were then incubated overnight in a cell culture incubator (5% CO2 and 37° C.) and allowed to attach to the plate. The following day cells were dosed with compounds at the desired concentrations. Compounds were first resuspended in DMSO to make 10 mM stock, and 20 μM stock was prepared by diluting 10 mM stock in culture media. […] Total protein concentration was measured using a BCA assay kit (Thermo Scientific, cat #P123227). […] Protein was then detected by incubating blots with 2 mL of HRP detection reagent (Thermo scientific cat #A38556) for one minute at room temperature. Excess reagent was drained and gently removed on a Kimwipe and the chemiluminescence signal was detected using Fluorchem imaging system. […] Relative quantification of western blots was performed using ImageJ software, data was then normalized to loading control (β-Actin) first and then to the DMSO-treated sample. […]
A general note: In western blotting, separated proteins are transferred to a membrane and probed.

Another experiment deals with Phospho-Rb (Ser807/811). The experiment can be described thus: Phospho-Retinoblastoma (pRB) Cellular Assay. It counts as cell-based. Particulars: Homo sapiens, OVCAR-3, NIH OVCAR3 cells, 24 hours. Summed up:
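Phospho-Rb (Ser807/811) kit read-out on EnVision after lysis (≥4 h, room temperature, dark) of OVCAR3 cells exposed to compound dilutions for 24 h. IC50 and maximum response Ymax are relative to a 10 μM reference compound defining 100%.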

The target in the next experiment is GSPT1 (Homo sapiens, UniProt P15170+Q96SW2). The experiment can be described thus: Degradation of GSPT1 (Western blot) in HCC1569 cells. In kind it is cell-based. Further details: endogenous in cells; host or cells: HCC1569 (ATCC CRL-2330). Conditions: HCC1569 cancer cells, 24 h, up to a concentration of 10 μM, FIG. 1C. The method, then: as §1
In experiment [1] the test system is MKN1 gastric carcinoma xenograft model. The experiment can be described thus: In vivo xenograft tumor efficacy study, MKN1. More on the design: species or system mice.

What is called IC50 is the concentration that inhibits the measured activity by half. Low readings indicate greater potency in that assay, high ones weaker potency in that assay.

Sequence of GSPT1 (P15170 whole entry): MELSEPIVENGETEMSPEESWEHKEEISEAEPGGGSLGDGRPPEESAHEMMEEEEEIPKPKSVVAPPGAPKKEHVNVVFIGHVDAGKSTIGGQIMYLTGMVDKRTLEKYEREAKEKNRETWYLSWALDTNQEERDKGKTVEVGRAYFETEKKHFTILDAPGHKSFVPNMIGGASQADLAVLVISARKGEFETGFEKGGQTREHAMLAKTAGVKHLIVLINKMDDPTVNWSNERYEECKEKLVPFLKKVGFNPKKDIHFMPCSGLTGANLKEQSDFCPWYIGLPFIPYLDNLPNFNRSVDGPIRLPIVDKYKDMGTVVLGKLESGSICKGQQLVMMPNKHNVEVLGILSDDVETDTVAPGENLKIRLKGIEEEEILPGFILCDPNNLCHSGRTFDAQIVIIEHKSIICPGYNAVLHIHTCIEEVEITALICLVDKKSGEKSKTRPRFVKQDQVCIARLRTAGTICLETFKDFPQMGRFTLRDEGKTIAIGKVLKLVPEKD
Sequence of GSPT1 (Q96SW2 whole entry): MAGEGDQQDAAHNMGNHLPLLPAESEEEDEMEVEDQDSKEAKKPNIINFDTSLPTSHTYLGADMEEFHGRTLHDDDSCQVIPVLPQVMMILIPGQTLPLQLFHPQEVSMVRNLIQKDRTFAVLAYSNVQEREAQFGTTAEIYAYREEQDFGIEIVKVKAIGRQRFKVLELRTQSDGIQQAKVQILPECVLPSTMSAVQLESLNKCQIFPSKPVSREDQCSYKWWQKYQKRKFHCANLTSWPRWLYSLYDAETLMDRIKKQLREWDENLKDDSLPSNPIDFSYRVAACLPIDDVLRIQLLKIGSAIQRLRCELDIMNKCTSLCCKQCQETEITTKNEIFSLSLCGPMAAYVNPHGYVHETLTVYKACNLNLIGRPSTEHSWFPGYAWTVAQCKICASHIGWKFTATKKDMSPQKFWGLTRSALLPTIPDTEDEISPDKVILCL
Sequence of GSPT1 (Q16531 whole entry partner): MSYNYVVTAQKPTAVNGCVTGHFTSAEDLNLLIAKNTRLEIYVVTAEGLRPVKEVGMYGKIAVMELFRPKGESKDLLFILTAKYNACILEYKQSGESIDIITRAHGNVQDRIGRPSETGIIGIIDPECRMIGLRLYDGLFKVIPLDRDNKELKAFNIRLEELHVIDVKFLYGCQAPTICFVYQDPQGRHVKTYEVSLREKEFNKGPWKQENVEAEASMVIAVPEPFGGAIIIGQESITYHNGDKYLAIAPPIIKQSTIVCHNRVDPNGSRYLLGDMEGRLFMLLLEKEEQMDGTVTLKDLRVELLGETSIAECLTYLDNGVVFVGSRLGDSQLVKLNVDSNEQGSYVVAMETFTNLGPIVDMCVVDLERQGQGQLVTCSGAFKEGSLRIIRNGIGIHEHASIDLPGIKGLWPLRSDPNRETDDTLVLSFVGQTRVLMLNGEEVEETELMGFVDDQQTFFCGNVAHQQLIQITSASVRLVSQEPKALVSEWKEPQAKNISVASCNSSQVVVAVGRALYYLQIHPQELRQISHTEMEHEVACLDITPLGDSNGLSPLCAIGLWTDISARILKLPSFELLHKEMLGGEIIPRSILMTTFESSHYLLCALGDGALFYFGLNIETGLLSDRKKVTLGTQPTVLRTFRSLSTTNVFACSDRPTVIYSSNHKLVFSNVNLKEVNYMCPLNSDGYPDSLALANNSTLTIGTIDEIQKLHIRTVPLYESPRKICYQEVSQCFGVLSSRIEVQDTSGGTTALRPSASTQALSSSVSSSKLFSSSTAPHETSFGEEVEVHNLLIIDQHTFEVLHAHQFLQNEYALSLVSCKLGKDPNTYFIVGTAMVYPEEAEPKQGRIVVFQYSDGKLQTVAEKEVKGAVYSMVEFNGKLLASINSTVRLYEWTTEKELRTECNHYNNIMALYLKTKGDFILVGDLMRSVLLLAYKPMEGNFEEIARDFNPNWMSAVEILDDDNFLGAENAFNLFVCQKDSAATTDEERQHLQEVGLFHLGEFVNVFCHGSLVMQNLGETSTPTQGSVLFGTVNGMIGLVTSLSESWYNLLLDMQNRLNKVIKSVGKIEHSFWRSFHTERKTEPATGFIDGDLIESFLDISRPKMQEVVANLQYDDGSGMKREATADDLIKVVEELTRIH
Sequence of Cyclin E1 (P24864 whole entry): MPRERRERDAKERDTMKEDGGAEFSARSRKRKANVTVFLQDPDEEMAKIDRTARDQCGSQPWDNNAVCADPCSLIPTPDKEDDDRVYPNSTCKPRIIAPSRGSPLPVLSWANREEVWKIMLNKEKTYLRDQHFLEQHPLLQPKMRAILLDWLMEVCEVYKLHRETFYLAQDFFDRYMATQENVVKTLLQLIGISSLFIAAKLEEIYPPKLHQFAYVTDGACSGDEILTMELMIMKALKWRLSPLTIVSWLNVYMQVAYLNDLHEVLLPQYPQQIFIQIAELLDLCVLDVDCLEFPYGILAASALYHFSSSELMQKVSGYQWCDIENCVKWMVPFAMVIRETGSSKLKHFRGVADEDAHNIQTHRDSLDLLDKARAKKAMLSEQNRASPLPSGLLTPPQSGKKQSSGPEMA
Sequence of Cyclin E1 (Q96SW2 whole entry): as the sequence (Q96SW2 whole entry) above
Sequence of Cyclin E1 (Q16531 whole entry partner): as the sequence (Q16531 whole entry partner) above

In the case of `COc1c(COC(=O)Nc2ccc(Oc3ccc(F)c(F)c3)cc2)ccc2c1C(=O)N([C@H]1CCC(=O)NC1=O)C2` (single isomer, unassigned) [Example 35, {2-[(3 S)-2,6-dioxopiperidin-3-yl]-4-methoxy-3-oxo-2,3-dihydro-1H-isoindol-5-yl}methyl N-[4-(3,4-difluorophenoxy)phenyl]carbamate], the “degradation of Cyclin E1 protein” value at Cyclin E1 is listed as “induced degradation of Cyclin E1 protein in a dose dependent manner”. The molecule also returned an IC50 with Phospho-Rb (Ser807/811) (concentration giving 50% response) of 85 nM. Also, the Emax in the experiment on Phospho-Rb (Ser807/811) (maximum response, reference compound at 10 μM = 100%, read-out: pRB Ymax) stood at 114%. In addition, the “degradation of GSPT1 protein” value on GSPT1 is given as “did not significantly degrade GSPT1 protein”. The “tumor growth inhibition (TGI)” value in experiment [1] (MKN1 gastric carcinoma xenograft, 30 mpk, QDx28 (as printed in text)) is on record as 95%. Besides, the “Tumor efficacy, TGI (tumor growth inhibition)” value in experiment [1] (MKN1 stomach, 10 mg/kg PO, QDx28) is on record as 95% TGI. For the same molecule, the anti-tumor activity result in experiment [1] (MKN1 xenografts, repeated dosing) is recorded as “dose-dependent anti-tumor activity”.
